Patent US20260193293A1, “PEPTIDES CAPABLE OF INHIBITING PROTEIN-PROTEIN INTERACTIONS AT GABAB1A SUBUNIT AND USES THEREOF” (UNIVERSITY OF COPENHAGEN, priority 2022, published 2026)
Values joined by “and” are separate entries in the source; they are usually repeats but may differ in a detail not shown here. Equal values may be shown once. Read-outs that look alike come from different tables or passages of the source. Non-standard residues stand in square brackets, D forms with d. Residues, ends and D or L forms follow the SMILES beside them. *: point of attachment. NMeD = CN[C@@H](CC(=O)O)C(=O)O; NMeV = CN[C@H](C(=O)O)C(C)C; NMeA = CN[C@@H](C)C(=O)O; Bn = c1ccc(C*)cc1; Sar = CNCC(=O)O

Target: Sushi domains (SD1/2) protein
Assay: Fluorescence polarization (FP) competition assay with AJAP-1probe, calculated Ki
Type: binding
Outline: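 Competition against 25 nM TAMRA-labelled peptide probe binding SD1/2, in PBS pH 7.4 with 1% BSA at rt, read at 530/580 nm. IC50 from sigmoidal dose-response fits, at least triplicate; Ki calculated from IC50 using probe Kd from saturation binding.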

[1] = Table 4, truncation and elongation scans of APP epitope, read-out: Ki (nM) mean ± SEM
[2] = Table 1, affinity maturation, mean ± SEM, n ≥ 3, read-out: Ki
[3] = Table 13, peptides for affinity maturation, read-out: Ki (nM) mean ± SEM
[4] = Table 9, Ala-, D-amino acids and N-methylation scans of PIANPWT, read-out: Ki (nM) mean ± SEM
[5] = Table 7, Ala-, D-amino acids and N-methylation scans of APPWT, read-out: Ki (nM) mean ± SEM

Q: CC[C@H](C)[C@H](NC(=O)[C@H](Cc1c[nH]c2ccccc12)NC(=O)[C@H](CC(=O)O)NC(=O)[C@H](CC(=O)O)NC(=O)[C@H](CC(=O)O)NC(=O)[C@H](CCC(=O)O)NC(=O)[C@H](CCCNC(=N)N)NC(=O)[C@H](CCCNC(=N)N)NC(=O)[C@H](CCCNC(=N)N)NC(=O)[C@H](CCCNC(=N)N)NC(=O)[C@H](CCCNC(=N)N)NC(=O)[C@H](CCCNC(=N)N)NC(=O)[C@H](CCCNC(=N)N)NC(C)=O)C(=O)N[C@@H](CC(=O)O)C(=O)N[C@@H](Cc1c[nH]c2ccccc12)C(=O)NCC(=O)N1CCC[C@H]1C(=O)N[C@H](C(=O)N[C@@H](CO)C(=O)N[C@@H](CC(=O)O)C(=O)N[C@@H](CC(=O)O)C(=O)N[C@@H](CC(=O)O)C(N)=O)[C@@H](C)O (Ac-RRRRRRREDDDWIDWGPTSDDD-NH2) was tested. Which Ki (Table 14, CPPs tagged peptides, read-out: Ki (nM) mean ± SEM) did it give?
A: Its Ki is 65 ± 2 nM.

Q: Which results are given for CC(=O)N[C@@H](CCC(=O)O)C(=O)N[C@@H](CCC(=O)O)C(=O)N[C@@H](CC(=O)O)C(=O)N[C@@H](CC(=O)O)C(=O)N[C@@H](CO)C(=O)N[C@@H](CC(=O)O)C(=O)N[C@H](C(=O)N[C@@H](Cc1c[nH]c2ccccc12)C(=O)N[C@@H](Cc1c[nH]c2ccccc12)C(=O)NCC(=O)NCC(=O)N[C@@H](C)C(=O)N[C@@H](CC(=O)O)C(=O)N[C@H](C(=O)N[C@@H](CC(=O)O)C(=O)N[C@@H](Cc1ccc(O)cc1)C(=O)N[C@@H](C)C(=O)N[C@@H](CC(=O)O)C(N)=O)[C@@H](C)O)C(C)C [Peptide 36] (Ac-EEDDSDVWWGGADTDYAD-NH2)?
A: Ki (Table 3, SPOT hit validation and previously reported peptides, read-out: Ki (nM) mean ± SEM): 244 ± 13 nM; Ki (Table 4, truncation and elongation scans of APP epitope, listed as EEDDSDVWWGGADTDYAD, read-out: Ki (nM) mean ± SEM): 244 nM and 233 nM

Q: For CC(=O)N[C@@H](CC(=O)O)C(=O)N[C@@H](CO)C(=O)N[C@@H](CC(=O)O)C(=O)N[C@H](C(=O)N[C@@H](Cc1c[nH]c2ccccc12)C(=O)N[C@@H](Cc1c[nH]c2ccccc12)C(=O)NCC(=O)NCC(=O)N[C@@H](C)C(=O)N[C@@H](CC(=O)O)C(=O)N[C@H](C(=O)N[C@@H](CC(=O)O)C(=O)N[C@@H](Cc1ccc(O)cc1)C(=O)N[C@@H](C)C(=O)N[C@@H](CC(=O)O)C(N)=O)[C@@H](C)O)C(C)C (Ac-DSDVWWGGADTDYAD-NH2), which Ki [1] is on record?
A: Its Ki is 1500 ± 66 nM.

Q: What does the source list for CC[C@H](C)[C@H](NC(=O)[C@H](Cc1ccc(O)cc1)NC(=O)[C@H](CC(=O)O)NC(=O)[C@H](CC(=O)O)NC(=O)[C@H](CCC(=O)O)NC(C)=O)C(=O)N[C@@H](CC(=O)O)C(=O)N[C@@H](Cc1c[nH]c2ccccc12)C(=O)NCC(=O)N1CCC[C@H]1C(=O)N[C@H](C(=O)N[C@@H](CO)C(=O)N[C@@H](CC(=O)O)C(=O)N[C@@H](CC(=O)O)C(=O)N[C@@H](CC(=O)O)C(N)=O)[C@@H](C)O [Peptide 19] (Ac-EDDYIDWGPTSDDD-NH2)?
A: Ki [2]: 3.8 ± 0.2 nM; Ki [3]: 3.8 ± 0.2 nM

Q: For CC[C@H](C)[C@H](NC(C)=O)C(=O)N[C@H](C(=O)N[C@@H](Cc1c[nH]c2ccccc12)C(=O)NCC(=O)N1CCC[C@H]1C(=O)N[C@H](C(=O)N[C@H](C(=O)N[C@@H](CO)C(=O)N[C@@H](CCCNC(=N)N)C(=O)N[C@@H](CCC(=O)O)C(=O)N[C@@H](CC(=O)O)C(=O)NCC(N)=O)C(C)C)[C@@H](C)O)C(C)C (Ac-IVWGPTVSREDG-NH2), which Ki (Table 6, elongation and truncation scan of PIANP binding epitope, read-out: Ki (nM) mean ± SEM) is on record?
A: Its Ki is 15700 ± 210 nM.

Q: With CC[C@H](C)[C@H](NC(=O)[C@H](Cc1c[nH]c2ccccc12)NC(=O)[C@H](CO)NC(=O)[C@H](CC(=O)O)NC(=O)[C@H](CC(=O)O)NC(=O)[C@H](CCC(=O)O)NC(C)=O)C(=O)N[C@@H](CC(=O)O)C(=O)N[C@@H](Cc1c[nH]c2ccccc12)C(=O)N[C@@H](Cc1ccc(O)cc1)C(=O)NCC(=O)N[C@@H](C)C(=O)N[C@@H](CC(=O)O)C(=O)N[C@H](C(=O)N[C@@H](CC(=O)O)C(N)=O)[C@@H](C)O [Peptide 30] (Ac-EDDSWIDWYGADTD-NH2) as the compound, how does the Ki [2] read?
A: The Ki was 11 ± 0.1 nM.

Q: And the Ki [3]?
A: Its Ki is 11 ± 0.1 nM.

Q: With CC[C@H](C)[C@H](NC(=O)[C@H](C)N(C)C(=O)[C@H](Cc1c[nH]c2ccccc12)NC(=O)[C@@H]1CCCN1C(C)=O)C(=O)N[C@H](C(=O)N[C@@H](Cc1c[nH]c2ccccc12)C(=O)NCC(=O)N1CCC[C@H]1C(=O)N[C@H](C(=O)N[C@H](C(=O)N[C@@H](CO)C(=O)N[C@@H](CCCNC(=N)N)C(=O)N[C@@H](CCC(=O)O)C(=O)N[C@@H](CC(=O)O)C(N)=O)C(C)C)[C@@H](C)O)C(C)C [PW(N-Me-A)IVWGPTVSRED] (Ac-PW[NMeA]IVWGPTVSRED-NH2) as the compound, how does the Ki [4] read?
A: Its Ki is 7230 ± 130 nM.

Q: How did the Ki [4] turn out when CC[C@H](C)[C@H](NC(=O)[C@H](C)NC(=O)[C@H](Cc1c[nH]c2ccccc12)NC(=O)[C@@H]1CCCN1C(C)=O)C(=O)N[C@H](C(=O)N[C@@H](Cc1c[nH]c2ccccc12)C(=O)NCC(=O)N1CCC[C@H]1C(=O)N[C@@H](C)C(=O)N[C@H](C(=O)N[C@@H](CO)C(=O)N[C@@H](CCCNC(=N)N)C(=O)N[C@@H](CCC(=O)O)C(=O)N[C@@H](CC(=O)O)C(N)=O)C(C)C)C(C)C [PWAIVWGPAVSRED] (Ac-PWAIVWGPAVSRED-NH2) was run?
A: The Ki was 1030 ± 26 nM.

Q: Which Ki [4] does the source give for CC[C@H](C)[C@H](NC(=O)[C@H](C)NC(=O)[C@H](Cc1c[nH]c2ccccc12)NC(=O)[C@@H]1CCCN1C(C)=O)C(=O)N[C@H](C(=O)N[C@@H](Cc1c[nH]c2ccccc12)C(=O)NCC(=O)N1CCC[C@H]1C(=O)N[C@H](C(=O)N[C@H](C(=O)N[C@@H](CO)C(=O)N[C@@H](C)C(=O)N[C@@H](CCC(=O)O)C(=O)N[C@@H](CC(=O)O)C(N)=O)C(C)C)[C@@H](C)O)C(C)C [PWAIVWGPTVSAED] (Ac-PWAIVWGPTVSAED-NH2) here?
A: The Ki was 341 ± 7 nM.

Q: Which Ki (Table 5, elongation and truncation scan of AJAP-1 binding epitope, read-out: Ki (nM) mean ± SEM) does the source give for CC[C@H](C)[C@H](NC(=O)[C@H](Cc1ccccc1)NC(=O)[C@H](CCC(=O)O)NC(=O)[C@@H](NC(=O)[C@H](CCC(=O)O)NC(=O)[C@@H](NC(=O)[C@@H](NC(=O)[C@@H]1CCCN1C(C)=O)[C@@H](C)O)[C@@H](C)O)[C@@H](C)O)C(=O)N[C@@H](C)C(=O)N[C@@H](Cc1c[nH]c2ccccc12)C(=O)NCC(=O)N1CCC[C@H]1C(=O)N[C@H](C(=O)NCC(=O)N[C@@H](CC(=O)O)C(=O)N[C@@H](CCC(=O)O)C(=O)N[C@@H](CC(=O)O)C(N)=O)[C@@H](C)O (Ac-PTTETEFIAWGPTGDED-NH2) here?
A: The Ki was 30 ± 0.5 nM.

Q: How did the Ki (Table 7, cells printed in μM, read-out: Ki (nM) mean ± SEM) turn out when CC(=O)N[C@@H](CCC(=O)O)C(=O)N[C@@H](CC(=O)O)C(=O)N[C@@H](CC(=O)O)C(=O)N[C@@H](CO)C(=O)N[C@@H](CC(=O)O)C(=O)N[C@@H](C)C(=O)N[C@@H](Cc1c[nH]c2ccccc12)C(=O)N[C@@H](Cc1c[nH]c2ccccc12)C(=O)NCC(=O)NCC(=O)N[C@@H](C)C(=O)N[C@@H](CC(=O)O)C(=O)N[C@H](C(=O)N[C@@H](CC(=O)O)C(N)=O)[C@@H](C)O (Ac-EDDSDAWWGGADTD-NH2) was run?
A: Its Ki is > 62500 nM.

Q: With CC(=O)N[C@@H](CCC(=O)O)C(=O)N[C@@H](CC(=O)O)C(=O)N(C)[C@@H](CC(=O)O)C(=O)N[C@@H](CO)C(=O)N[C@@H](CC(=O)O)C(=O)N[C@H](C(=O)N[C@@H](Cc1c[nH]c2ccccc12)C(=O)N[C@@H](Cc1c[nH]c2ccccc12)C(=O)NCC(=O)NCC(=O)N[C@@H](C)C(=O)N[C@@H](CC(=O)O)C(=O)N[C@H](C(=O)N[C@@H](CC(=O)O)C(N)=O)[C@@H](C)O)C(C)C (Ac-ED[NMeD]SDVWWGGADTD-NH2) as the compound, how does the Ki [5] read?
A: The Ki was 671 ± 27 nM.

Q: CC(=O)N[C@@H](CCC(=O)O)C(=O)N[C@@H](CC(=O)O)C(=O)N[C@@H](CC(=O)O)C(=O)N[C@@H](CO)C(=O)N[C@@H](CC(=O)O)C(=O)N[C@H](C(=O)N[C@@H](Cc1c[nH]c2ccccc12)C(=O)N[C@@H](Cc1ccc(OCc2ccccc2)cc1)C(=O)NCC(=O)NCC(=O)N[C@@H](C)C(=O)N[C@@H](CC(=O)O)C(=O)N[C@H](C(=O)N[C@@H](CC(=O)O)C(N)=O)[C@@H](C)O)C(C)C [EDDSDVW(Obtyr)GGADTD] (Ac-EDDSDVWY(Bn)GGADTD-NH2) was tested. Which Ki (Table 16, ncAAs incorporated peptides, read-out: Ki (nM) mean ± SEM) did it give?
A: The Ki was 3860 ± 62 nM.

Q: For CC(=O)N[C@@H](CCC(=O)O)C(=O)N[C@@H](CC(=O)O)C(=O)N[C@@H](CC(=O)O)C(=O)N[C@@H](CO)C(=O)N[C@@H](CC(=O)O)C(=O)N(C)[C@H](C(=O)N[C@@H](Cc1c[nH]c2ccccc12)C(=O)N[C@@H](Cc1c[nH]c2ccccc12)C(=O)NCC(=O)NCC(=O)N[C@@H](C)C(=O)N[C@@H](CC(=O)O)C(=O)N[C@H](C(=O)N[C@@H](CC(=O)O)C(N)=O)[C@@H](C)O)C(C)C (Ac-EDDSD[NMeV]WWGGADTD-NH2), which Ki [5] is on record?
A: The Ki was 12300 ± 375 nM.

Q: Which Ki [2] does the source give for CC[C@H](C)[C@H](NC(=O)[C@H](Cc1ccccc1)NC(=O)[C@H](CCC(=O)O)NC(=O)[C@@H](NC(=O)[C@H](CCC(=O)O)NC(C)=O)[C@@H](C)O)C(=O)N[C@@H](C)C(=O)N[C@@H](Cc1c[nH]c2ccccc12)C(=O)NCC(=O)N(C)CC(=O)N[C@H](C(=O)NCC(=O)N[C@@H](CC(=O)O)C(=O)N[C@@H](CCC(=O)O)C(=O)N[C@@H](CC(=O)O)C(N)=O)[C@@H](C)O [Peptide 38] (Ac-ETEFIAWG[Sar]TGDED-NH2) here?
A: The Ki was 32 ± 2 nM.

Q: What about the Ki (Table 8, Ala-, D-amino acids and N-methylation scans of AJAP-1WT, read-out: Ki (nM) mean ± SEM) of the same compound?
A: Its Ki is 32 ± 2 nM.

Q: What about the Ki [3] of the same compound?
A: The Ki was 32 ± 2 nM.

Q: With CC(=O)N[C@@H](CCC(=O)O)C(=O)N[C@@H](CC(=O)O)C(=O)N[C@@H](CC(=O)O)C(=O)N[C@@H](CO)C(=O)N[C@@H](CC(=O)O)C(=O)N[C@H](C(=O)N[C@@H](Cc1c[nH]c2ccccc12)C(=O)N[C@@H](Cc1c[nH]c2ccccc12)C(=O)NCC(=O)NCC(=O)N[C@@H](C)C(=O)N[C@@H](CC(=O)O)C(=O)N[C@H](C(=O)N[C@@H](CC(=O)O)C(=O)N[C@@H](Cc1ccc(O)cc1)C(=O)N[C@@H](C)C(=O)N[C@@H](CC(=O)O)C(N)=O)[C@@H](C)O)C(C)C (Ac-EDDSDVWWGGADTDYAD-NH2) as the compound, how does the Ki [1] read?
A: The Ki was 281 ± 4 nM.
